Data: ChEMBL document CHEMBL3991601, “The target landscape of clinical kinase drugs” (Science, 2017)
Calls of active or inactive are those of the source. Cut-off read from the data, not from the text of the source, for most assays here: actives have a measured Kd and inactives only a lower limit.

Legend:
[1] = biological target: Casein kinase I isoform gamma-1 (Homo sapiens, UniProt Q9HCP0)
[2] = biological target: Serine/threonine-protein kinase 10 (Homo sapiens, UniProt O94804)
[3] = biological target: T1, Ferrochelatase, mitochondrial (Homo sapiens, UniProt P22830)
T1 sequence (P22830 whole entry): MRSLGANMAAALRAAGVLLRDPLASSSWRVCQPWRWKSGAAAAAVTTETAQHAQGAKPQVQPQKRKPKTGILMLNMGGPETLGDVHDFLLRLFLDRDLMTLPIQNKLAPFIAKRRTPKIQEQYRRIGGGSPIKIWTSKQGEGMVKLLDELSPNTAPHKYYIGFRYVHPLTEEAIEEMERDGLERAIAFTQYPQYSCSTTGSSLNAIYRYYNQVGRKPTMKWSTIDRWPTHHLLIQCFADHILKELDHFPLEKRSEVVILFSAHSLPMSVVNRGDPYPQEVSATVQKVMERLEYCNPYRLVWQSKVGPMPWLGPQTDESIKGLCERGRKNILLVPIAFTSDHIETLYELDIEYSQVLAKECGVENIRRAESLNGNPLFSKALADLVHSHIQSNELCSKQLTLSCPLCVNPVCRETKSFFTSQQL

Rab-like protein 3 = biological target: T2, Rab-like protein 3 (Homo sapiens, UniProt Q5HYI8)
T2 sequence (Q5HYI8 whole entry): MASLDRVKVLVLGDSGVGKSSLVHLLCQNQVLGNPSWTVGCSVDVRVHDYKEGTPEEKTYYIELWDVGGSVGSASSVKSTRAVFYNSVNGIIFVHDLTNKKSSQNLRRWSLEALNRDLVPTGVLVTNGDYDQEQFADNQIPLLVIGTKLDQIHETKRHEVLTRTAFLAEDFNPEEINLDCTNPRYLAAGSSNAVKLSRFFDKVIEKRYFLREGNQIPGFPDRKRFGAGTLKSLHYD

[4] = biological target: T3, Phosphatidylinositol 5-phosphate 4-kinase type-2 gamma (Homo sapiens, UniProt Q8TBX8)
T3 sequence (Q8TBX8 whole entry): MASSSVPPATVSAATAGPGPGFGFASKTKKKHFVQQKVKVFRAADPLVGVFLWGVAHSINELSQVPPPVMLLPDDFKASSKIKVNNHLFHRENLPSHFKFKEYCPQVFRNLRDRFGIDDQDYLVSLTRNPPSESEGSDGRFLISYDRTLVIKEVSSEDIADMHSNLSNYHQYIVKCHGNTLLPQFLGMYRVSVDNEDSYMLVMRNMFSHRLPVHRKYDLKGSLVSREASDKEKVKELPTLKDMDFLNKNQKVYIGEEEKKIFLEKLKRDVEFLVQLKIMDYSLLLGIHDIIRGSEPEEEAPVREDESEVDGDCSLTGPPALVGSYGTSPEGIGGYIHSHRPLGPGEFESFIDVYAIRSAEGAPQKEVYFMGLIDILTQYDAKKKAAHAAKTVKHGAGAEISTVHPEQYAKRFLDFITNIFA

Ephrin type-B receptor 6 = biological target: T4, Ephrin type-B receptor 6 (Homo sapiens, UniProt O15197)
T4 sequence (O15197 whole entry): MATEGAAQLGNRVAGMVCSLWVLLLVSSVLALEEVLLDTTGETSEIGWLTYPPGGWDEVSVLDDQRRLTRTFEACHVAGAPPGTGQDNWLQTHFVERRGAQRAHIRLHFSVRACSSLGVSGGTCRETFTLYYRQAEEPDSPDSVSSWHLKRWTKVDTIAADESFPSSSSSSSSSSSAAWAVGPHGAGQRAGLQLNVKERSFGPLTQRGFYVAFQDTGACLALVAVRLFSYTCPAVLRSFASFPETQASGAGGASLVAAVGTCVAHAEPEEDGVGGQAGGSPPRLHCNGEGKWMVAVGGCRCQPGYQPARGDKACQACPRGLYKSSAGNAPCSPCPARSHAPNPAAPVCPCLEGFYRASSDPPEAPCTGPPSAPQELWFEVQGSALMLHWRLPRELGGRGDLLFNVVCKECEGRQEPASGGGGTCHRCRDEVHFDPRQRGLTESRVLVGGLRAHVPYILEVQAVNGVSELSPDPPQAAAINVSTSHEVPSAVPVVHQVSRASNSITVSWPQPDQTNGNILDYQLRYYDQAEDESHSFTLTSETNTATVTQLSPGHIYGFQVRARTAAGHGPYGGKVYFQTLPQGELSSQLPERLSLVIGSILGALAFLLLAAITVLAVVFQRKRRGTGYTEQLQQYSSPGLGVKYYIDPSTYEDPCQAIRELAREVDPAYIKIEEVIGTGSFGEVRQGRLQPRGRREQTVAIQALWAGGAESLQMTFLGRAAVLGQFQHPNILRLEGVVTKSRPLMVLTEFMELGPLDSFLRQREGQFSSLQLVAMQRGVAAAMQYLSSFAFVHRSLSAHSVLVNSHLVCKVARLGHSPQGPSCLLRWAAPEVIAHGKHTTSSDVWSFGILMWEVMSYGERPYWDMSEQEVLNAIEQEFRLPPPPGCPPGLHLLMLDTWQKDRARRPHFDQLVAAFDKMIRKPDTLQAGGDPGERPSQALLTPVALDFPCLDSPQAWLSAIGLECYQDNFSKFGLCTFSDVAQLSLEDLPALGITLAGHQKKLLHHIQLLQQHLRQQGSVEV
Note: in the data inactive means no Kd found up to 30 µM.

Sequence of Serine/threonine-protein kinase 10 (O94804 whole entry): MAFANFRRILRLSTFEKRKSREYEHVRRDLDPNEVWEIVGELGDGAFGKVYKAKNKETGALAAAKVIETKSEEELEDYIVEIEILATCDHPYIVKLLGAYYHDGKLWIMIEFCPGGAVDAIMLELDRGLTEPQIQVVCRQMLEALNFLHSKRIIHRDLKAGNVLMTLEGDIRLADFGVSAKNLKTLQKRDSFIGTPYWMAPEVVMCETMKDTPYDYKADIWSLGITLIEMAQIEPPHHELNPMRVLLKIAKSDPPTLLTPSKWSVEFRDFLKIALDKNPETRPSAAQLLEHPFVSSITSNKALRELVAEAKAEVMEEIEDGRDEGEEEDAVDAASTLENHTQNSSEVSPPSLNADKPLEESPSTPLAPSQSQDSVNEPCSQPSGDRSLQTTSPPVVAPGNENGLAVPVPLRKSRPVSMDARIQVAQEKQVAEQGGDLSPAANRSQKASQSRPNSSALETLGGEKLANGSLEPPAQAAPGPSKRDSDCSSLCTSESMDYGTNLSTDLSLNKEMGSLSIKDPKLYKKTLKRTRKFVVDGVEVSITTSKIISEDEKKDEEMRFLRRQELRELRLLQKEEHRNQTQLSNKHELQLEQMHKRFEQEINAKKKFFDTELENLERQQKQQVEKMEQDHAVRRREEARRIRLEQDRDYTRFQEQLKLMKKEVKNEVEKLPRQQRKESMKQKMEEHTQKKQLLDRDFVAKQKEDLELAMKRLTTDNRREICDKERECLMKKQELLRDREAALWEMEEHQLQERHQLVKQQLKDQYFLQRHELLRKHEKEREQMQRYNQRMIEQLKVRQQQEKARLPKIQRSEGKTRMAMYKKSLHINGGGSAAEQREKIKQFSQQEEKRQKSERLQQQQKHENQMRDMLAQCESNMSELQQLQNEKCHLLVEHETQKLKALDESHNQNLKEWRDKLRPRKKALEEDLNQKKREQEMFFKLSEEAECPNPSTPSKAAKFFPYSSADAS
Sequence of Casein kinase I isoform gamma-1 (Q9HCP0 whole entry, canonical isoform): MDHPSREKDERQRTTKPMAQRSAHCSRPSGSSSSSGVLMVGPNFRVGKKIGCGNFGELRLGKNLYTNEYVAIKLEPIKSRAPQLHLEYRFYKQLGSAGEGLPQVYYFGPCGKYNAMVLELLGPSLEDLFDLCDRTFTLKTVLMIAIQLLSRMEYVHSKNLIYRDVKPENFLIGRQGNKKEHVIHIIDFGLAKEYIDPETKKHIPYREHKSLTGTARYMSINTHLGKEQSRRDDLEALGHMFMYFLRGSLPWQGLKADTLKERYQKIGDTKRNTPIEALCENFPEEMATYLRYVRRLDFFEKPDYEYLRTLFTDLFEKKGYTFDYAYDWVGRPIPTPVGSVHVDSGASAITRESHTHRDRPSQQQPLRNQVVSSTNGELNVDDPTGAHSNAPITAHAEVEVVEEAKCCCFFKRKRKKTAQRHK

Row | SMILES | Kd [1] | Kd [2] | Kd [3] | Kd (Rab-like protein 3) | Kd [4] | Kd (Ephrin type-B receptor 6)
1 | COc1cc2nccc(Oc3ccc(NC(=O)C4(C(=O)Nc5ccc(F)cc5)CC4)cc3)c2cc1OC [CABOZANTINIB] | > 30 µM (inactive) | > 30 µM (inactive) | 2.63 µM (active) | > 30 µM (inactive) | 2.9 µM (active) | > 30 µM (inactive)
2 | O=C(Nc1ccc(OC(F)(F)F)cc1)c1sccc1NCc1ccnc2ccccc12 [OSI-930] | > 30 µM (inactive) | > 30 µM (inactive) | > 30 µM (inactive) |  | > 30 µM (inactive) | > 30 µM (inactive)
3 | Cc1cc(Nc2nc(N[C@@H](C)c3ncc(F)cn3)ncc2Cl)n[nH]1 [AZD-1480] | > 30 µM (inactive) | 0.728 µM (active) | > 30 µM (inactive) | > 30 µM (inactive) | > 30 µM (inactive) | > 30 µM (inactive)
4 | COc1cccc(Nc2ncnn3ccc(CN4CC[C@@H](N)[C@H](O)C4)c23)c1 [BMS-690514] | > 30 µM (inactive) | 1.28 µM (active) | > 30 µM (inactive) | > 30 µM (inactive) | > 30 µM (inactive) | > 30 µM (inactive)
5 | COc1cc2ncnc3c2cc1OCCCCCN(C)Cc1ccc(Br)cc1N3 [JNJ-26483327] | > 30 µM (inactive) | 45.1 µM (active) | 3.97 µM | > 30 µM (inactive) | > 30 µM (inactive) | > 30 µM (inactive)
6 | CCc1cc2c(cc1N1CCC(N3CCOCC3)CC1)C(C)(C)c1[nH]c3cc(C#N)ccc3c1C2=O [ALECTINIB] | > 30 µM (inactive) | > 30 µM (inactive) | > 30 µM (inactive) | > 30 µM (inactive) | > 30 µM (inactive) | > 30 µM (inactive)
7 | CN(c1ncccc1CNc1nc(Nc2ccc3c(c2)CC(=O)N3)ncc1C(F)(F)F)S(C)(=O)=O [PF-00562271] |  | > 30 µM (inactive) | > 30 µM (inactive) | > 30 µM (inactive) | > 30 µM (inactive) | > 30 µM (inactive)
8 | CNC(=O)c1cccc(-c2ccc3c(N4CCOC[C@@H]4C)nc(N4CCOC[C@@H]4C)nc3n2)c1 [VISTUSERTIB] | > 30 µM (inactive) | > 30 µM (inactive) | > 30 µM (inactive) | > 30 µM (inactive) | > 30 µM (inactive) | > 30 µM (inactive)
9 | C=CCn1c(=O)c2cnc(Nc3ccc(N4CCN(C)CC4)cc3)nc2n1-c1cccc(C(C)(C)O)n1 [ADAVOSERTIB] | > 30 µM (inactive) | > 30 µM (inactive) | > 30 µM (inactive) | > 30 µM (inactive) | > 30 µM (inactive) | 0.337 µM (active)
10 | CNC(=O)c1cc(COc2nnc(Nc3ccc(Cl)cc3)c3ccoc23)ccn1 [TELATINIB] | > 30 µM (inactive) | > 30 µM (inactive) | > 30 µM (inactive) | > 30 µM (inactive) | > 30 µM (inactive) | > 30 µM (inactive)
11 | COc1cc2c(Oc3ccc4[nH]c(C)cc4c3F)ncnc2cc1OCCCN1CCCC1 [CEDIRANIB] |  |  | > 30 µM (inactive) |  |  | 
12 | Cn1c(=O)c(F)c(Nc2ccc(I)cc2F)c2c(=O)n(C[C@@H](O)CO)cnc21 [TAK-733] | > 30 µM (inactive) | > 30 µM (inactive) | > 30 µM (inactive) | > 30 µM (inactive) | > 30 µM (inactive) | 
13 | CC[C@@](C)(Nc1ccnc(-c2c[nH]c3ncccc23)n1)C(=O)NCC(F)(F)F [DECERNOTINIB] | > 30 µM (inactive) | 0.071 µM (active) | > 30 µM (inactive) | > 30 µM (inactive) | > 30 µM (inactive) | > 30 µM (inactive)
14 | N#CCNC(=O)c1ccc(-c2ccnc(Nc3ccc(N4CCOCC4)cc3)n2)cc1 [MOMELOTINIB] |  |  | > 30 µM (inactive) | > 30 µM (inactive) | > 30 µM (inactive) | > 30 µM (inactive)
15 | CC1(C)CNc2cc(NC(=O)c3cccnc3NCc3ccncc3)ccc21 [MOTESANIB] |  |  | > 30 µM (inactive) | > 30 µM (inactive) |  | 
16 | NC[C@@](O)(c1ccc(Cl)cc1)c1ccc(-c2cn[nH]c2)cc1 [AT-13148] | > 30 µM (inactive) | > 30 µM (inactive) | > 30 µM (inactive) |  | > 30 µM (inactive) | > 30 µM (inactive)
17 | Cc1c(NC(=O)OC[C@@H]2COCCN2)cn2ncnc(Nc3ccc4c(cnn4Cc4cccc(F)c4)c3)c12 [AC-480] | > 30 µM (inactive) | > 30 µM (inactive) | > 30 µM (inactive) |  | > 30 µM (inactive) | > 30 µM (inactive)
18 | COc1cc(Nc2ncc(F)c(Nc3ccc4c(n3)N(COP(=O)(O)O)C(=O)C(C)(C)O4)n2)cc(OC)c1OC [FOSTAMATINIB] | > 30 µM (inactive) | > 30 µM (inactive) | > 30 µM (inactive) | > 30 µM (inactive) |  | > 30 µM (inactive)
19 | CN(C)C/C=C/C(=O)Nc1cc2c(Nc3ccc(F)c(Cl)c3)ncnc2cc1O[C@H]1CCOC1 [AFATINIB] |  |  | > 30 µM (inactive) | > 30 µM (inactive) |  | 
20 | S=C(NCc1ccc2c(c1)OCO2)N1CCN(c2ncnc3c2oc2ccccc23)CC1 [AMUVATINIB] |  | > 30 µM (inactive) | > 30 µM (inactive) | > 30 µM (inactive) | > 30 µM (inactive) | > 30 µM (inactive)
21 | Cn1cnc2c(F)c(Nc3ccc(Br)cc3Cl)c(C(=O)NOCCO)cc21 [SELUMETINIB] |  |  | > 30 µM (inactive) | > 30 µM (inactive) |  | 
22 | C=CC(=O)Nc1cc(Nc2nccc(-c3cn(C)c4ccccc34)n2)c(OC)cc1N(C)CCN(C)C [OSIMERTINIB] | > 30 µM (inactive) | > 30 µM (inactive) | > 30 µM (inactive) |  | 2.97 µM (active) | > 30 µM (inactive)
23 | COc1cc2c(N3CCN(C(=O)Nc4ccc(OC(C)C)cc4)CC3)ncnc2cc1OCCCN1CCCCC1 [TANDUTINIB] |  |  | > 30 µM (inactive) | > 30 µM (inactive) |  | 
24 | O=S(=O)(c1cccc2cnccc12)N1CCCNCC1 [FASUDIL] | > 30 µM (inactive) | > 30 µM (inactive) | > 30 µM (inactive) |  | > 30 µM (inactive) | > 30 µM (inactive)
25 | C[C@@]1(C(=O)Nc2ccc(F)nc2)CCCN1c1nc(Nc2cc(C3CC3)n[nH]2)c2cccn2n1 [BMS-754807] |  |  | > 30 µM (inactive) | > 30 µM (inactive) |  | 
26 | COc1ccc(-c2ccc3ncc4c(c3c2)n(-c2ccc(N3CCNCC3)c(C(F)(F)F)c2)c(=O)n4C)cn1 [BGT-226 FREE BASE] |  | > 30 µM (inactive) | 3.11 µM (active) |  | 4.79 µM (active) | > 30 µM (inactive)
27 | CC(C)CC(=O)Nc1[nH]nc2c1CN(C(=O)C1CCN(C)CC1)C2(C)C [PHA-793887] |  | > 30 µM (inactive) | > 30 µM (inactive) |  | > 30 µM (inactive) | > 30 µM (inactive)
28 | C[C@]1(O)C[C@@H](c2nc(-c3ccc4ccc(-c5ccccc5)nc4c3)c3c(N)nccn32)C1 [LINSITINIB] |  | > 30 µM (inactive) | 4.21 µM (active) | > 30 µM (inactive) | 5.57 µM (active) | > 30 µM (inactive)
